Tested on: participants with chronic migraine
Test: Same phase 3 study: patient-reported outcomes (MSQ v2.1, AIM-D, HIT-6, WPAI, PGI-C, treatment satisfaction, EQ-5D-5L)
Assay type: in vivo, human
Conditions: for Change from Baseline in HIT-6 total score at Week 12, LS Mean / Change from Baseline in HIT-6 total score at Week 12, LSMD Atogepant vs. Placebo / Change from Baseline in MSQ v2.1 Role Function - Restrictive Domain Score at Week 12, LS Mean / Change from Baseline in MSQ v2.1 Role Function - Restrictive Domain Score at Week 12, LSMD Atogepant vs. Placebo: Off-Treatment Hypothetical Estimand population
Excerpt: The MSQ v2.1 is a 14-item questionnaire designed to measure health-related quality of life impairments attributed to migraine in the past 4 weeks. It is divided into three domains: Role Function Restrictive assesses how migraines limit one's daily social and work-related activities; Role Function Preventive assesses how migraines prevent these activities; and the Emotional Function domain assesses the emotions associated with migraine. Participants respond to items using a 6-point scale ranging from “none of the time” to “all of the time.” Raw dimension scores are computed as a sum of item responses and rescaled to a 0 to 100 scale, where higher scores indicate better quality of life.
The AIM-D (Activity Impairment in Migraine — Diary) is an 11-function daily diary measure that assesses the impact of migraine. It is comprised of two domains that evaluate performance of daily activities (PDA: 7 items) and physical impairment (PI: 4 items). […] The AIM-D was developed as an electronic daily diary with the same set of questions administered in headache and non-headache versions. Raw domain scores are rescaled to a 0 to 100 scale, where higher scores indicate greater impact of migraine.
The HIT-6 (Headache Impact Test) is a 6-question assessment used to measure the impact headaches have on a participant's ability to function on the job, at school, at home, and in social situations. It assesses the effect that headaches have on normal daily life and the participant's ability to function. Responses are based on frequency using a 5-point scale ranging from “never” to “always.” The HIT-6 total score, which ranges from 36 to 78, is the sum of the responses—each of which is assigned a score ranging from 6 points (never) to 13 points (always)—with higher scores indicating larger impact due to headache. Yang et al., “Validation of the Headache Impact Test (HIT-6™) across episodic and chronic migraine”, Cephalalgia, 2011 February; 31(3): 357−367.
Secondary endpoints included change from baseline in mean monthly headache days across the 12 week treatment period; change from baseline in mean monthly acute medication use days across the 12-week treatment period; at least a 50% reduction in mean monthly migraine days across the 12-week treatment period; change from baseline in MSQ v2.1 Role Function-Restrictive domain score at week 12; change from baseline in mean AIM-D monthly functioning and activity impairment score across the 12-week treatment period; and change from baseline in HIT-6 total score at week 12.
FIG. 8 and Table 5 show the change from baseline in AIM-D Performance of Daily Activities at Weeks 1-4, 5-8, and 9-12 and across 12 weeks. FIG. 9 and Table 6 show change from baseline in WPAI Overall Work Productivity Loss at Weeks 1-4, 5-8, and 9-12. […] A graphical approach with weighted Bonferroni test procedure was used to control the overall type I error rate at the 2-sided α=0.05 level for key secondary endpoint comparisons between each atogepant dose vs placebo. For exploratory endpoints, nominal P values were provided without adjusting for multiplicity.
Patient-reported outcome (PRO) measures included the Performance of Daily Activities (PDA) and Physical Impairment (PI) domains of the Activity Impairment in Migraine-Diary (AIM-D), and the 5-level European Quality of Life-5 Dimension (EQ-5D-5L) descriptive system and visual analogue scale (VAS), implemented via daily diary. Scores in each domain were transformed to a 0-100 scale with higher scores indicating a greater burden from migraine. Changes in PDA and PI scores and the proportion of participants achieving clinically meaningful within-patient change in the PDA domain (≥12.5 points) and PI domain (≥10 points) were compared between participants who received atogepant vs placebo. EQ-5D-5L measures 5 dimensions of QOL, including mobility, self-care, usual activities, pain/discomfort, and anxiety/depression. […]

[1] = 30 mg BID, week 12, mITT, listed as atogepant
[2] = 60 mg QD, week 12, mITT, listed as atogepant
[3] = 60 mg, within the first 2 weeks
[4] = both doses (30 mg BID, 60 mg QD), all time points

Which results are given for `C[C@@H]1[C@H](c2c(F)ccc(F)c2F)C[C@H](NC(=O)c2cnc3c(c2)C[C@@]2(C3)C(=O)Nc3ncccc32)C(=O)N1CC(F)(F)F` [Atogepant, (S)—N—((3S,5S,6R)-6-methyl-2-oxo-1-(2,2,2-trifluoroethyl)-5-(2,3,6-trifluorophenyl)piperidin-3-yl)-2′-oxo-1′,2′,5,7-tetrahydrospiro[cyclopenta[b]pyridine-6,3′-pyrrolo[2,3-b]pyridine]-3-carboxamide]?
Change from Baseline in HIT-6 total score at Week 12, LS Mean (30 mg BID): −8.47; Change from Baseline in HIT-6 total score at Week 12, LSMD Atogepant vs. Placebo (30 mg BID): −3.30; Change from Baseline in MSQ v2.1 Role Function - Restrictive Domain Score at Week 12, LS Mean (30 mg BID): 24.74; Change from Baseline in MSQ v2.1 Role Function - Restrictive Domain Score at Week 12, LSMD Atogepant vs. Placebo (30 mg BID): 7.43; Change from Baseline in WPAI Overall Work Productivity Loss, LSMD vs placebo (30 mg BID, Week 4): −12.69; Change from Baseline in WPAI Overall Work Productivity Loss, LSMD vs placebo (30 mg BID, Week 8): −8.61; Change from Baseline in AIM-D Performance of Daily Activities, LSMD vs placebo (30 mg BID, Weeks 1-4): −5.44; Change from Baseline in AIM-D Performance of Daily Activities, LSMD vs placebo (30 mg BID, Weeks 5-8): −4.75; Change from Baseline in AIM-D Performance of Daily Activities, LSMD vs placebo (30 mg BID, Weeks 9-12): −4.36; Change from baseline in MSQ v2.1 role function restrictive domain score at week 12, LS Mean (30 mg BID, mITT): 25.15; Change from baseline in MSQ v2.1 role function restrictive domain score at week 12, LSMD Atogepant vs. Placebo (30 mg BID, mITT): 7.96; Change from baseline in mean monthly performance of daily activities domain score of the AIM-D across the 12-week treatment period, LS Mean (30 mg BID, mITT): −14.29; Change from baseline in mean monthly performance of daily activities domain score of the AIM-D across the 12-week treatment period, LSMD Atogepant vs. Placebo (30 mg BID, mITT): −4.85; Change from baseline in mean monthly physical impairment domain score of the AIM-D across the 12-week treatment period, LS Mean (30 mg BID, mITT): −12.11; Change from baseline in mean monthly physical impairment domain score of the AIM-D across the 12-week treatment period, LSMD Atogepant vs. Placebo (30 mg BID, mITT): −4.19; Change from Baseline in WPAI Overall Work Productivity Loss, LSMD vs placebo (30 mg BID, week 12): −7.94; MSQ v2.1 Emotional Function domain score change from baseline, LSMD vs placebo (30 mg BID, week 12): 6.36; MSQ v2.1 Role Function-Preventive domain score change from baseline, LSMD vs placebo (30 mg BID, week 12): 8.10; PGI-C responders (30 mg BID, week 12, mITT): 153/239; PGI-C responders (much better or very much better), Percentage (30 mg BID, week 12, mITT): 64.0%; PGI-C responders, OR (95% CI) vs placebo (30 mg BID, week 12, mITT): 3.36 (2.29, 4.94); Satisfaction with study medication (satisfied or extremely satisfied), Percentage (30 mg BID, week 12, mITT): 64.6%; Satisfaction with study medication responders (30 mg BID, week 12, mITT): 148/229; Satisfaction with study medication, OR (95% CI) vs placebo (30 mg BID, week 12, mITT): 2.67 (1.82, 3.91); PGI-C responders (much better or very much better), Percentage [1]: 64.0%; Satisfaction with study medication (satisfied or extremely satisfied), Percentage [1]: 64.6%; Change from Baseline in HIT-6 total score at Week 12, LS Mean (60 mg QD): −7.83; Change from Baseline in HIT-6 total score at Week 12, LSMD Atogepant vs. Placebo (60 mg QD): −2.66; Change from Baseline in MSQ v2.1 Role Function - Restrictive Domain Score at Week 12, LS Mean (60 mg QD): 23.09; Change from Baseline in MSQ v2.1 Role Function - Restrictive Domain Score at Week 12, LSMD Atogepant vs. Placebo (60 mg QD): 5.78; Change from Baseline in WPAI Overall Work Productivity Loss, LSMD vs placebo (60 mg QD, Week 4): −15.26; Change from Baseline in WPAI Overall Work Productivity Loss, LSMD vs placebo (60 mg QD, Week 8): −11.33; Change from Baseline in AIM-D Performance of Daily Activities, LSMD vs placebo (60 mg QD, Weeks 1-4): −4.44; Change from Baseline in AIM-D Performance of Daily Activities, LSMD vs placebo (60 mg QD, Weeks 5-8): −3.59; Change from Baseline in AIM-D Performance of Daily Activities, LSMD vs placebo (60 mg QD, Weeks 9-12): −2.11; Change from baseline in MSQ v2.1 role function restrictive domain score at week 12, LS Mean (60 mg QD, mITT): 23.33; Change from baseline in MSQ v2.1 role function restrictive domain score at week 12, LSMD Atogepant vs. Placebo (60 mg QD, mITT): 6.15; Change from baseline in mean monthly performance of daily activities domain score of the AIM-D across the 12-week treatment period, LS Mean (60 mg QD, mITT): −12.82; Change from baseline in mean monthly performance of daily activities domain score of the AIM-D across the 12-week treatment period, LSMD Atogepant vs. Placebo (60 mg QD, mITT): −3.38; Change from baseline in mean monthly physical impairment domain score of the AIM-D across the 12-week treatment period, LS Mean (60 mg QD, mITT): −10.63; Change from baseline in mean monthly physical impairment domain score of the AIM-D across the 12-week treatment period, LSMD Atogepant vs. Placebo (60 mg QD, mITT): −2.71; participants achieving clinically relevant reduction with AIM-D PDA of ≥12.5 (60 mg QD, week 1): 42.9%; participants achieving clinically relevant reduction with AIM-D PI of ≥10 (60 mg QD, week 1): 43.7%; AIM-D PDA change from baseline, LSMD vs placebo (60 mg QD, week 1, mITT): −5.83; AIM-D PI change from baseline, LSMD vs placebo (60 mg QD, week 1, mITT): −4.12; Change from Baseline in WPAI Overall Work Productivity Loss, LSMD vs placebo (60 mg QD, week 12): −9.64; MSQ v2.1 Emotional Function domain score change from baseline, LSMD vs placebo (60 mg QD, week 12): 6.81; MSQ v2.1 Role Function-Preventive domain score change from baseline, LSMD vs placebo (60 mg QD, week 12): 6.86; PGI-C responders (60 mg QD, week 12, mITT): 130/246; PGI-C responders (much better or very much better), Percentage (60 mg QD, week 12, mITT): 52.8%; PGI-C responders, OR (95% CI) vs placebo (60 mg QD, week 12, mITT): 2.16 (1.48, 3.15); Satisfaction with study medication (satisfied or extremely satisfied), Percentage (60 mg QD, week 12, mITT): 59.2%; Satisfaction with study medication responders (60 mg QD, week 12, mITT): 138/233; Satisfaction with study medication, OR (95% CI) vs placebo (60 mg QD, week 12, mITT): 2.16 (1.49, 3.15); PGI-C responders (much better or very much better), Percentage [2]: 52.8%; Satisfaction with study medication (satisfied or extremely satisfied), Percentage [2]: 59.2%; EQ-5D-5L VAS score, LSMD vs placebo [3]: 4.47; mean EQ-5D-5L descriptive system score, LSMD vs placebo [3]: 0.04; proportion meeting HIT-6 responder criteria (score reduction ≥5 points) vs placebo (all time points and doses, nominal P<0.001): nominally significantly greater; WPAI activity impairment vs. placebo [4]: Nominally significant improvements; WPAI presenteeism vs. placebo [4]: Nominally significant improvements; WPAI absenteeism vs. placebo (both doses (30 mg BID, 60 mg QD), weeks 4 and 12): Nominally significant improvements; HIT-6 scores vs placebo (both doses, weeks 4 and 8, nominal P<0.001): nominally significant improvements

Reference: patent publication US20230321055A1, “PREVENTIVE TREATMENT OF MIGRAINE” (priority 2022, published 2023)
